Patent US7709634B2, “Amorphous form of rifaximin and processes for its preparation” (Apotex PharmAchem Inc., priority 2007, dated 2010)

Assay: Polymorphic stability on exposure to ambient humidity, checked by PXRD
Type: physicochemical
Settings: exposure to ambient humidity for a period of 10 days
Source text: High yield of amorphous form of rifaximin is isolated by the processes of the present invention and it has high chemical purity and retains acceptable amounts of residual solvents.

In the case of `CO[C@H]1/C=C/O[C@@]2(C)Oc3c(C)c(O)c4c(O)c(c5c(nc6cc(C)ccn65)c4c3C2=O)NC(=O)/C(C)=C\C=C\[C@H](C)[C@H](O)[C@@H](C)[C@@H](O)[C@@H](C)[C@H](OC(C)=O)[C@@H]1C` [amorphous form of rifaximin, (2S,16Z,18E,20S,21S,22R,23R,24R,25S,26S,27S,28E)-5,6,21,23,25-pentahydroxy-27-methoxy-2,4,11,16,20,22,24,26-octamethyl-2,7-(epoxypentadeca-[1,11,13]trienimino)benzofuro[4,5-e]pyrido[1,2-α]-benzimidazole-1,15(2H)-dione,25-acetate], the “polymorphic form after exposure to ambient humidity, as indicated by PXRD spectroscopy” value is reported as “did not change the polymorphic form”.
